According to US7005297B2, “Use of neuroactive compounds” (Council of Scientific and Industrial Research, priority 2003, dated 2006):
Marks after values point to notes of the source that are not given here.

Legend:
Drosophila melanogaster [1] = assay: negative geotaxis assay, height climbed by individual flies; format: in vivo
Protocol: (§1) Unless otherwise mentioned, standard methods of fly manipulation were followed. Standard fly medium consisting of agar-agar, maize powder, brown sugar, dried yeast and nipagin was used. Flies were cultured at 22±1° C., 60% RH, and 12 hrs light (9 AM to 9 PM) and 12 hours dark cycle. D. melanogaster wild type Oregon-R strain was used in the experiment. To obtain males for control and drug treatment, flies from identical cultures grown in glass vials were first allowed to lay eggs in milk bottles containing medium. Flies were shifted to fresh bottles every 12 hr. First 4 sets of bottles were discarded. Flies that emerged in subsequent bottles were only used. Those that emerged in the beginning were first discarded and then flies were collected twice at 12 hr interval. Flies collected each time were kept separately in a single bottle. Two days after first collection, males and females from both the bottles were separated. Males were then pooled together and shifted to a new bottle. Flies were used for control or drug treatment two days later.
Following morning after pooling males for treatment, drugs (Sigma-Aldrich Co, St. Louis, U.S.A.) were first dissolved in distilled water at following concentration: 33.3 mg/ml of strychnine (STR), 40 mg/ml of pentylenetetrazol (PTZ), 20 mg/ml of tetraethylammonium chloride (TEA), 10 mg/ml of lithium […] (LICA) and 2 mg/ml of nicotine (NICO). Appropriate volume of freshly made drug solutions were then poured in molten fly media, and mixed thoroughly, to achieve a final concentration of 3.33 mg/ml of STR, 4 mg/ml of PTZ, 2 mg/ml of TEA, 1 mg/ml of LICA, and 0.2 mg/ml of NICO. For control, i.e., normal food (NF), distilled water of same volume as drug solution was added in the medium and mixed. Following this, the molten media was dispensed in glass vials, stored overnight at 4° C. and then used for above treatment of flies. Thirty male flies were shifted to each of the […] treatment vials, NF, STR, PTZ, TEA, LICA and NICO. Flies were maintained at 22±1° C., 60% RH, and 12 hrs light (9 AM to 9 PM) and 12 hours dark cycle.
On 22nd day of the beginning of drug treatment, three males from each treatment were separately mated to a single virgin female each. The females were grown on NF and were never exposed to any drug at any time. The F1 progenies resulting from each pair mating were pooled together before being further used. F2 generation was obtained through mating in mass the F1 progenies. F1 to F2 flies were never exposed to any drug at any time.
Negative geotaxis assays for measuring height climbed and climbing speed, and horizontal locomotion assay for measuring distance walked—were performed at room temperature, between 9 AM to 9 PM. They were all performed at a specified area in a room, where same light sources were always used. While measuring various locomotor activities, extreme care was taken to ensure that the room is quiet, and the table onto which assays were performed undisturbed and vibration free. Utmost care was taken to ensure identical handling of flies, in minutest details. For measuring height climbed, climbing speed and distance walked, a single fly was randomly selected at a time. This was achieved by first inverting flies from a given treatment vial into an empty vial and then continuously and gently shaking and inverting both the vials in such a way that a single fly is finally trapped in the empty vial. Once trapped, all the three locomotor activities were measured using the same fly, height climbed, climbing speed and distance walked, in that order. One fly each from NF, STR, PTZ, PILO, TEA, LICA, and ESD, selected randomly, was first scored and then the same exercise was repeated for another two flies. Once a fly was scored for all the three locomotor activities, it was discarded. Flies were particularly checked for intact legs and wings, before they were used in negative geotaxis and horizontal locomotion assays.

Drosophila melanogaster [2] = conditions: F1 male and female progeny of drug-fed fathers, routine examination over 30 days
Protocol: as §1
Following morning after pooling males for treatment, drugs (Sigma-Aldrich Co, St. Louis, U.S.A.) were first dissolved in distilled water at following concentration: 33.3 mg/ml of strychnine (STR), 40 mg/ml of pentylenetetrazol (PTZ), 20 mg/ml of tetraethylammonium chloride (TEA), 10 mg/ml of lithium chloride (LICA) and 2 mg/ml of nicotine (NICO). […]

[3] = F1 males never exposed to drug, fathers drug-fed, assayed on 31st day of emergence, n=30, NF control 25.1
[4] = F2 females (second batch) never exposed to drug, grandfathers drug-fed, 8th day of emergence, n=30, NF control 21.3
[5] = drug exposed parent males, day 13 of treatment
[6] = drug-fed parent males, day 13 of treatment, drug in fly medium (STR 3.33, PTZ 4, TEA 2, LICA 1, NICO 0.2 mg/ml), n=30, NF control 20.86, asterisks = t-test vs NF (*5%, **1%, ***0.1%)

| SMILES | Height climbed by flies, Mean (F1) (Drosophila melanogaster [1]; [3]) | Height climbed by flies, Mean (F2) (Drosophila melanogaster [1]; [4]) | change in height climbed compared to normal food (NF) (Drosophila melanogaster [1]; [5]) | Height climbed by flies, Mean (Parents) (Drosophila melanogaster [1]; [6]) | Height climbed by flies, Mean (F1) (Drosophila melanogaster [1]; in vivo) | Height climbed by flies, Mean (F2) (Drosophila melanogaster [1]; in vivo) | Height climbed by flies, Mean (Parents) (Drosophila melanogaster [1]; in vivo) | change in height climbed compared to normal food (NF) (Drosophila melanogaster [1]; in vivo) | gross locomotor activity compared to control (Drosophila melanogaster [2]) |
| --- | --- | --- | --- | --- | --- | --- | --- | --- | --- |
| O=C([O-])[O-].[Li+].[Li+] [LICA, lithium carbonate] | 17.7*** cm | 27.53** cm | increase in the height climbed | 32.96*** cm |  |  |  |  |  |
| CN1CCCC1c1cccnc1 (centres unmarked) [NICO, nicotine] |  |  |  |  | 10.86*** cm | 29.36*** cm | 32.16*** cm | increase in the height climbed | climbed very slowly |
| C1CCc2nnnn2CC1 [PTZ, pentylenetetrazol] |  |  | increase in the height climbed |  |  |  |  |  |  |
| O=C1C[C@@H]2OCC=C3CN4CC[C@]56c7ccccc7N1[C@H]5[C@H]2[C@H]3C[C@H]46 [STR, strychnine] | 16.56*** cm | 29.83*** cm |  | 28** cm |  |  |  |  |  |
| CC[N+](CC)(CC)CC.[Cl-] [TEA, tetraethylammonium chloride] | 12.43*** cm | 29.46*** cm | increase in the height climbed | 32.4*** cm |  |  |  |  |  |
